From EP0126849A1, “Pharmacologically active N-amino hydantoin derivatives, their synthesis and intermediates” (THE WELLCOME FOUNDATION LIMITED, priority 1983, dated 1984)
In brackets after ≈: the same amount, converted by molar mass. Where two headings read alike, the source gives them in different places.

Experiments:
[1] = test system: mean systemic arterial blood pressure (BP); test: Cardiovascular actions in rats: fall in blood pressure and duration of the hypotensive effect; type: in vivo, male Wistar rats; conditions: for Fall in BP Relative Potency PGE1 / Fall in BP Relative Potency PGI2: anaesthetized rat, i.v. injection; for Fall in BP Relative Potency PGE1: potency ratio against PGE1; for Fall in BP Relative Potency PGI2: potency ratio against PGI2; for Duration t½: time from peak hypotensive response to recovery to half its peak, rat i.v.
Experimental: Anaesthesia was induced in male Wistar rats (250-300 g body weight) with sodium pentobarbitone (30 mg kg^-1, i.v.) and supplemented (3 mg kg^-1) when required. Arterial pressure was recorded from a cannulated femoral artery and heart rate derived from the arterial pulse. Rectal temperature was maintained at 37°C by thermistor-controlled radiant heat. Each compound was injected into a femoral vein in a volume of 0.25 ml and flushed in with 0.2 ml of saline (0.9% w/v). Dose-response relationships for the fall in mean systemic arterial blood pressure (BP) with the hydantoins were constructed and compared to those obtained with PGI2 and PGE, in the same animal, and a potency ratio calculated. […] Figures for Compound X and PGI2 are listed for comparison.

[2] = test system: platelet aggregation; test: Inhibition of platelet aggregation in human platelet-rich plasma (Born-type aggregometer, ADP or other aggregating agent); type: cell-based; conditions: for IC50 / Potency relative to PGI2: human PRP; for IC50: 1 min incubation at 37°C before aggregating agent; for Potency relative to PGI2: 1 min incubation, PGI2 = 1; for Increase on Incubation (min) 5: increase in potency after 5 min incubation in PRP
Experimental: Human blood was freshly collected into siliconized (Siloclad; Clay Adams) plastic (Sterilin Ltd.) vessels containing trisodium citrate (3.15%; 0.1 volume with 0.9 volume blood) and centrifuged (200 g for 15 min) at room temperature. The platelet-rich plasma (PRP) was withdrawn into plastic containers and kept at room temperature. Inhibition of […] prior to addition of sufficient adenosine diphosphate (ADP) or other aggregating agent to just cause a non-reversing control aggregation. Dose-inhibition curves were constructed for each compound and the ID50 (dose causing 50% inhibition) was calculated as the dose required to reduce the aggregation to 50% of its control amplitude. […] For comparison, also given are the results upon administration of 5-(6-carboxyhexyl)-1-(3-cyclohexyl-3-hydroxypropyl)hydantoin (Compound X) which is disclosed in UK Specification 1,595,694. -
In this and subsequent biological examples, where a compound number refers to a single diastereoisomer, a mixture of diastereoisomers is indicated by two compound numbers separated by /.

[3] = test system: B.P.; test: Cardiovascular studies in the dog: vasodepressor potency and duration; type: in vivo, Dogs; conditions: i.v. bolus
Experimental: Dogs (10-15 kg body weight) were anaesthetized with chloralose (80 mg/kg i.v.) and maintained with subcutaneous injections of pentobarbitone (3 mg/kg). Drugs were administered via a femoral vein by bolus injection and B.P. was recorded from the right femoral artery. Results give vasodepressor potency and t1 2 duration. Figures for Compound X are provided for comparison.

[4] = test system: acid-ethanol induced gastric lesions; test: Inhibition of acid-ethanol induced gastric lesions in rats (cytoprotection); type: in vivo; conditions: rat, oral
Experimental: The inhibition of acid-ethanol induced gastric lesions in rats (cytoprotection) was measured for various doses of orally administered hydantoin. Figures for compound X are given for comparison.

[5] = Homo sapiens, Platelet, 1 min, read-out: IC50

Row | Structure (SMILES) | Fall in BP Relative Potency PGE1 [1] | Fall in BP Relative Potency PGI2 [1] | Duration t½ [1] | IC50 [2, 5] | Potency relative to PGI2 [2] | Increase on Incubation (min) 5 [2] | Δ BP ([3]; Dose 0.625 ug kg^-1) | t1/2 ([3]; Dose 0.625 ug kg^-1, duration of vasodepressor effect) | Δ BP ([3]; Dose 1.25 ug kg^-1) | t1/2 ([3]; Dose 1.25 ug kg^-1, duration of vasodepressor effect) | % inhibition ([4]; Dose 50 μg kg^-1) | IC50 [2] | % inhibition ([4]; Dose 10 μg kg^-1) | % inhibition ([4]; Dose 25 μg kg^-1)
1 | O=C(O)CCCCCCC1C(=O)NC(=O)N1N=CC(O)c1ccccc1 (single isomer, unassigned) [Compound No. 11, 5-(6-carboxyhexyl)-1-(2-hydroxy-2-phenylethylldeneamino)hydantoln] | 1.1 | 0.1 | 16.0 min | 1 ng/mL (≈ 0.00277 µM) | 0.53 | x8 |  |  |  |  |  |  |  | 
2 | CCCCCC(O)CNN1C(=O)NC(=O)C1CCCCCCC(=O)O (single isomer, unassigned) [Compound No. 35, 5-(6-carboxyhexyl)-I-(2-hydroxyheptylamino)hydantoin] |  | 0.01 | 1.3 min | 12.7 ng/mL (≈ 0.0355 µM) | 0.05 | x1.5 |  |  |  |  |  |  |  | 
3 | O=C(O)CCCCCCC1C(=O)NC(=O)N1NCC(O)C1CCCCC1 (single isomer, unassigned) [compound 29, 5-(6-carboxyhexyl)-1-(2-cyclohexyl-2-hydroxyethylamino)hydantoln] | 0.24 | 0.02 | 37 min | 6 ng/mL (≈ 0.0162 µM) | 0.16 | x7 | -26 mm Hg | >30 min | -51 mm Hg | >60 min |  |  |  | 
4 | CCOC(=O)CCCCCCC1C(=O)NC(=O)N1N=CC(OC(C)=O)C1CCCCC1 (stereo not drawn) [4/5, 1-(2-acetoxy-2-cyclohexylethylideneamino)-5-(6-ethoxycarbonylhexyl)hydantoin] |  |  |  |  |  |  |  |  |  |  | 90 ± 6% |  |  | 
5 | CCCCCC(O)C=NN1C(=O)NC(=O)C1CCCCCCC(=O)O (stereo not drawn) [17/18, 5-(6-carboxyhexyl)-1-(2-hydroxyheptylideneamino)hydantoin] | 0.48 | 0.04 | 10 to 19 min |  | 0.12 | x2 |  |  |  |  |  | 8 ngml^-1 |  | 
6 | O=C(O)CCCCCCC1C(=O)NC(=O)N1N=CC(O)Cc1ccccc1 (stereo not drawn) [23/24, 5-(6-carboxyhexyl)-1-(2-hydroxy-3-phenylpropylideneamino)hydantoin] |  |  |  |  |  |  |  |  |  |  |  |  | 55 ± 15% | 
7 | CN1C(=O)C(CCCCCCC(=O)O)N(N=CC(O)C2CCCCC2)C1=O (stereo not drawn) [25/26, 5-(6-carboxyhexyl)-1-(2-cyclohexyl-2-hydroxyethylideneamino)-3-methylhydantoin] | 1.08 | 0.09 | 9 min | 13 ng/mL (≈ 0.0341 µM) | 0.06 | x6 |  |  |  |  |  |  |  | 
8 | O=C(O)CCCCCCC1C(=O)NC(=O)N1NCC(O)c1ccccc1 (stereo not drawn) [33/34, 5-(6-carboxyhexyl)-1-(2-hydroxy-2-phenylethylamino) hydantoin] | 0.24 | 0.02 | 6 min |  | 0.17 | x2 |  |  |  |  |  | 6 ngml^-1 |  | 
9 | CCCCCC(O)CNN1C(=O)NC(=O)C1CCCCCCC(=O)O (stereo not drawn) [35/36, 5-(6-carboxyhexyl)-1-(2-hydroxyheptylamino)hydantoin] |  | 0.06 | 0.1 min | 1.27 ng/mL (≈ 0.00355 µM) | 0.49 | x1.5 |  |  |  |  |  |  |  | 
10 | CN1C(=O)C(CCCCCCC(=O)O)N(NCC(O)C2CCCCC2)C1=O (stereo not drawn) [37/38] | 0.36 | 0.03 | 17 min | 3 ng/mL (≈ 0.00782 µM) | 0.18 | x7 |  |  |  |  |  |  | 71 ± 7% | 
11 | CCCCCC(O)C=NN1C(=O)NC(=O)C1CCCCCCC(=O)O (stereo not drawn) [Compound No. 17, 5-(6-carboxyhexyl)-1-(2-hydroxyheptylideneamino)hydantoin] | 0.12 | 0.01 | 3.5 min |  | 0.01 | x2 |  |  |  |  |  | 131 ngml^-1 |  | 
12 | O=C(O)CCCCCCC1C(=O)NC(=O)N1NCC(O)C1CCCCC1 (stereo not drawn) [Compound No. 30, 5-(6-carboxyhexyl)-1-(2-cyclohexyl-2-hydroxyethylamino) hydantoin] | 0.24 | 0.02 | 28 min | 0.9 ng/mL (≈ 0.00244 µM) | 0.64 | x6 |  |  |  |  |  |  |  | 65 ± 17%
13 | O=C(O)CCCCCCC1C(=O)NC(=O)N1NCC(O)c1ccccc1 (stereo not drawn) [Compound No. 33, 5-(6-carboxyhexyl)-1-(2-hydroxy-2-phenylethylamino)hydantoin] |  |  |  |  | 0.07 | x2 |  |  |  |  |  | 5.3 ngml^-1 |  | 
14 | O=C(O)CCCCCCC1C(=O)NC(=O)N1NCC(O)c1ccccc1 (stereo not drawn) [Compound No. 34, 5-(6-carboxyhexyl)-1-(2-hydroxy-2-phenylethylamino)hydantoin] |  |  |  |  | 0.003 |  |  |  |  |  |  | 175 ngml^-1 |  | 
15 | O=C(O)CCCCCCC1C(=O)NC(=O)N1N=CCC1CCCCC1 (stereo not drawn) [compound 8, 5-(6-carboxyhexyl)-1-(2-cyclahexylethylideneamino) hydantoin] | 0.11 | 0.01 | 1.0 min | 24 ng/mL (≈ 0.0683 µM) | 0.05 |  |  |  |  |  | 76 ± 11% |  |  | 71 ± 6%
